Compound: CCOC1=CC=CC=C1N=NC2=C(NN(C2=O)C3=NC(=CS3)C4=CC=CC=C4)C [BAM7]
Assay: relative viability (nuclei count vs DMSO), 5 days (fraction); higher = more cells survive
Conditions: 0.5 µM
Summary of the method: (§1)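 Nuclei counted with MetaXpress define viability as the ratio of treated to vehicle wells, given as a median across plates. The lung cancer cell lines were in 1536-well plates, pinned with five √10-spaced library-drug doses and imaged at 4× after 5 days and Hoechst staining. Plates passed with control CV below 25% and at least one doubling.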

First: HCC-366
Second: NCI-H1666
The relative viability of the first is higher: 1.04 for the first, 1.03 for the second.

Compared with NCI-H596, LK-2 is higher in relative viability: 0.965 for the first, 1.03 for the second.

Compared with NCI-H2087, SK-MES-1 is lower in relative viability: 1.18 for the first, 1.04 for the second.

Compared with H3255, COR-L23 is lower in relative viability: 0.99 for the first, 0.982 for the second.

First: COR-L 105
Second: IA-LM
The relative viability of the first is lower: 0.833 for the first, 0.988 for the second.

Compared with LOU-NH91, NCI-H2170 is lower in relative viability: 0.974 for the first, 0.972 for the second.

Going from NCI-H2405 to HOP-62, the relative viability rises from 0.989 to 1.03.

First: HCC-44
Second: A549
The relative viability of the first is lower: 0.923 for the first, 1.01 for the second.

First: LU99A
Second: BEN
The relative viability of the first is higher: 1.09 for the first, 1.04 for the second.

First: HARA
Second: HCC-78
The relative viability of the first is lower: 0.942 for the first, 1.06 for the second.

First: NCI-H322M
Second: LCLC-97TM1
The relative viability of the first is lower: 0.922 for the first, 1.12 for the second.

Compared with NCI-H2009, A-427 is higher in relative viability: 1.04 for the first, 1.05 for the second.

Compared with NCI-H661, NCI-H1734 is higher in relative viability: 0.984 for the first, 1.03 for the second.

First: NCI-H460
Second: NCI-H2347
The relative viability of the first is lower: 1.02 for the first, 1.13 for the second.

First: SK-LU-1
Second: NCI-H1395
The relative viability of the first is higher: 1.04 for the first, 0.884 for the second.

First: 201T
Second: NCI-H1915
The relative viability of the first is lower: 0.918 for the first, 1.01 for the second.

Going from HCC-827 to LXF-289, the relative viability rises from 1.04 to 1.06.

Same assay, conditions: 5 µM

Compared with Calu-6, HCC-366 is lower in relative viability: 1.06 for the first, 1.04 for the second.

First: NCI-H1666
Second: NCI-H596
The relative viability of the first is lower: 1 for the first, 1.08 for the second.

First: LK-2
Second: NCI-H2087
The relative viability of the first is lower: 1.13 for the first, 1.14 for the second.

Going from SK-MES-1 to H3255, the relative viability falls from 1.08 to 1.02.

Compared with COR-L23, COR-L 105 is lower in relative viability: 1.07 for the first, 0.909 for the second.

Compared with IA-LM, LOU-NH91 is higher in relative viability: 0.979 for the first, 1.06 for the second.

First: NCI-H2170
Second: NCI-H2405
The relative viability of the first is lower: 0.993 for the first, 1.13 for the second.

Going from HOP-62 to HCC-44, the relative viability falls from 1.09 to 0.997.

Going from A549 to LU99A, the relative viability falls from 1.07 to 1.02.

First: BEN
Second: HARA
The relative viability of the first is higher: 1.05 for the first, 1.01 for the second.

Going from HCC-78 to NCI-H322M, the relative viability rises from 0.879 to 0.96.

LCLC-97TM1 and NCI-H2009 are the same in relative viability: 1.12 for the first, 1.12 for the second.

First: A-427
Second: NCI-H661
The relative viability of the first is higher: 1.08 for the first, 1.03 for the second.

First: NCI-H1734
Second: NCI-H460
The relative viability of the first is higher: 1.07 for the first, 0.989 for the second.

First: NCI-H2347
Second: SK-LU-1
The relative viability of the first is lower: 1.11 for the first, 1.24 for the second.

First: NCI-H1395
Second: 201T
The relative viability of the first is higher: 1.01 for the first, 0.865 for the second.

Going from NCI-H1915 to HCC-827, the relative viability falls from 1.13 to 1.05.

In the case of LXF-289, the relative viability is reported as 1.07.

Same assay, conditions: 15.81 µM

First: Calu-6
Second: HCC-366
The relative viability of the first is lower: 0.989 for the first, 1.03 for the second.

Compared with NCI-H1666, NCI-H596 is lower in relative viability: 1.09 for the first, 0.957 for the second.

Compared with LK-2, NCI-H2087 is higher in relative viability: 1.04 for the first, 1.11 for the second.

Compared with SK-MES-1, H3255 is lower in relative viability: 0.973 for the first, 0.963 for the second.

Compared with COR-L23, COR-L 105 is lower in relative viability: 0.966 for the first, 0.95 for the second.

Going from IA-LM to LOU-NH91, the relative viability rises from 0.85 to 0.939.

Going from NCI-H2170 to NCI-H2405, the relative viability rises from 0.904 to 1.03.

First: HOP-62
Second: HCC-44
The relative viability of the first is higher: 1.07 for the first, 1.02 for the second.

Going from A549 to LU99A, the relative viability rises from 0.948 to 0.979.

Compared with BEN, HARA is lower in relative viability: 1.11 for the first, 0.836 for the second.

First: HCC-78
Second: NCI-H322M
The relative viability of the first is higher: 1.07 for the first, 1 for the second.

First: LCLC-97TM1
Second: NCI-H2009
The relative viability of the first is higher: 1.09 for the first, 0.994 for the second.

First: A-427
Second: NCI-H661
The relative viability of the first is higher: 1 for the first, 0.965 for the second.

Going from NCI-H1734 to NCI-H460, the relative viability falls from 1 to 0.895.

First: NCI-H2347
Second: SK-LU-1
The relative viability of the first is higher: 1.06 for the first, 0.962 for the second.

First: NCI-H1395
Second: 201T
The relative viability of the first is higher: 0.944 for the first, 0.793 for the second.

Compared with NCI-H1915, HCC-827 is higher in relative viability: 0.989 for the first, 1.06 for the second.

With LXF-289 the relative viability was 1.01.

Same assay, conditions: 50 µM

Going from Calu-6 to HCC-366, the relative viability rises from 0.995 to 1.02.

Compared with NCI-H1666, NCI-H596 is higher in relative viability: 1.05 for the first, 1.07 for the second.

Going from LK-2 to NCI-H2087, the relative viability rises from 1.1 to 1.13.

First: SK-MES-1
Second: H3255
The relative viability of the first is higher: 1.03 for the first, 0.995 for the second.

First: COR-L23
Second: COR-L 105
The relative viability of the first is lower: 1.01 for the first, 1.14 for the second.

Compared with IA-LM, LOU-NH91 is lower in relative viability: 1.15 for the first, 0.973 for the second.

Compared with NCI-H2170, NCI-H2405 is higher in relative viability: 0.958 for the first, 1.08 for the second.

Going from HOP-62 to HCC-44, the relative viability falls from 1.07 to 1.01.

First: A549
Second: LU99A
The relative viability of the first is lower: 1.03 for the first, 1.07 for the second.

Compared with BEN, HARA is higher in relative viability: 0.981 for the first, 0.986 for the second.

First: HCC-78
Second: NCI-H322M
The relative viability of the first is higher: 1.04 for the first, 0.991 for the second.

Compared with LCLC-97TM1, NCI-H2009 is lower in relative viability: 1.06 for the first, 1.04 for the second.

First: A-427
Second: NCI-H661
The relative viability of the first is higher: 1.09 for the first, 1.03 for the second.

Going from NCI-H1734 to NCI-H460, the relative viability falls from 1.1 to 0.969.

Compared with NCI-H2347, SK-LU-1 is higher in relative viability: 1.03 for the first, 1.13 for the second.

First: NCI-H1395
Second: 201T
The relative viability of the first is higher: 1.1 for the first, 0.861 for the second.

First: NCI-H1915
Second: HCC-827
The relative viability of the first is lower: 0.991 for the first, 1.03 for the second.

LXF-289 gave a relative viability of 0.929.

Compound: CCn1c(-c2nonc2N)nc2c(C#CC(C)(C)O)ncc(OC[C@H]3CCCNC3)c21
Assay: as above
Conditions: 0.01 µM
Summary of the method: as §1

First: Calu-6
Second: HCC-366
The relative viability of the first is higher: 0.995 for the first, 0.993 for the second.

Going from NCI-H1666 to NCI-H596, the relative viability falls from 1.02 to 0.947.

First: LK-2
Second: NCI-H2087
The relative viability of the first is lower: 0.889 for the first, 0.931 for the second.

Compared with SK-MES-1, H3255 is lower in relative viability: 0.998 for the first, 0.924 for the second.

Compared with COR-L23, COR-L 105 is lower in relative viability: 0.991 for the first, 0.919 for the second.

Compared with IA-LM, LOU-NH91 is lower in relative viability: 1.01 for the first, 1 for the second.

Compared with NCI-H2170, NCI-H2405 is higher in relative viability: 0.962 for the first, 1.05 for the second.

First: HOP-62
Second: HCC-44
The relative viability of the first is higher: 0.989 for the first, 0.951 for the second.

Going from A549 to LU99A, the relative viability rises from 0.934 to 1.07.
